Target: Bifunctional dihydrofolate reductase-thymidylate synthase (Plasmodium falciparum K1, UniProt P13922)
Test: Inhibition constant against Plasmodium falciparum dihydrofolate reductase

Bifunctional dihydrofolate reductase-thymidylate synthase, sequence (P13922 whole entry): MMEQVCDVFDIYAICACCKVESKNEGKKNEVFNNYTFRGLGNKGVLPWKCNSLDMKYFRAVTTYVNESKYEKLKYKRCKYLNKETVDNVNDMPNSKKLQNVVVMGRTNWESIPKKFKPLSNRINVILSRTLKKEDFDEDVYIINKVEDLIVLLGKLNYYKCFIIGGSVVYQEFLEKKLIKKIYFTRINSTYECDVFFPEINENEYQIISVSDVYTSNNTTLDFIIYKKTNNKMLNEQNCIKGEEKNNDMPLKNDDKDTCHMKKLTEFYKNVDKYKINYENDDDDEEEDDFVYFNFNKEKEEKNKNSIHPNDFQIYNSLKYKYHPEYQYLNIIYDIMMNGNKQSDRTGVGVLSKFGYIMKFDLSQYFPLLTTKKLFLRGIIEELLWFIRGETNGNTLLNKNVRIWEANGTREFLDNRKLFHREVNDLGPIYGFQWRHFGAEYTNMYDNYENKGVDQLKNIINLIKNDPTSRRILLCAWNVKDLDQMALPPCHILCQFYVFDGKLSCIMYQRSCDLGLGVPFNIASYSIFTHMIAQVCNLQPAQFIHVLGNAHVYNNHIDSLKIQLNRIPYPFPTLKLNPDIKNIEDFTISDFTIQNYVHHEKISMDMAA

| Compound | Ki [nM] |
| --- | --- |
| CC1(C)N=C(N)N=C(N)N1OCCCOc1cc(Cl)c(Cl)cc1Cl | 1.1 |
| Cc1cc2nc3n(c2cc1C)C(C)(C)NC(N)=N3 | 180 |
| N=C(NO)c1ccc(Oc2cc(Cl)cc(Cl)c2)c([N+](=O)[O-])c1 | 1700 |
| Cc1nc(N)nc(N)c1-c1ccc(Cl)cc1 | 0.84 |
| COC(=O)CCCc1nc(N)nc(N)c1-c1ccccc1 | 10 |
| Cc1nc(N)nc(N)c1-c1ccccc1 | 110 |
| Nc1ncc(-c2cccc(Cl)c2)c(N)n1 | 75 |
| Nc1ncc(-c2ccccc2)c(N)n1 | 100 |
| Nc1nc(N)c(-c2ccc(Cl)cc2)c(CCCc2ccccc2)n1 | 0.74 |
| CCc1nc(N)nc(N)c1-c1ccc(C)cc1 | 1.1 |
| CCc1nc(N)nc(N)c1-c1ccc(C(C)(C)C)cc1 | 0.77 |
| Nc1nc(N)c(-c2cccc(Cl)c2)c(CCCc2ccccc2)n1 | 42 |
| Cc1nc(N)nc(N)c1-c1cccc(Cl)c1 | 83 |
| CCc1nc(N)nc(N)c1-c1ccc(OCc2ccc(Cl)cc2Cl)c(OC)c1 | 9.6 |
| CCc1nc(N)nc(N)c1-c1ccccc1 | 100 |
| CCOc1c(Br)cc(-c2c(N)nc(N)nc2CC)cc1Br | 37 |
| CCc1nc(N)nc(N)c1-c1ccc(Cl)cc1Cl | 0.92 |
| Nc1nc(N)c(-c2cccc(Cl)c2)c(CCOCCCOc2ccccc2)n1 | 13 |
| COC(=O)CCCc1nc(N)nc(N)c1-c1ccc(Cl)cc1 | 0.14 |
| COc1ccc(CCCc2nc(N)nc(N)c2-c2cccc(Cl)c2)cc1 | 11 |
| CCc1nc(N)nc(N)c1-c1cccc(Cl)c1 | 72 |
| Nc1ncc(-c2ccc(Cl)cc2)c(N)n1 | 0.74 |
| CCc1nc(N)nc(N)c1-c1ccc(-c2ccccc2)cc1 | 90 |
| CCc1nc(N)nc(N)c1-c1ccc(OC)cc1 | 1.3 |
| CCc1nc(N)nc(N)c1-c1ccc(Br)cc1 | 0.84 |

| Compound | Ki [nM] |
| --- | --- |
| CCc1nc(N)nc(N)c1-c1cccc(OC)c1 | 36 |
| C/N=C(\S)NNC(=O)c1cccn(Cc2cccc(Cl)c2)c1=O | 900 |
| Cc1[nH]c(N)cc2nc3ccccc3c1-2 | 2300 |
| N/C(=N/O)c1ccc(Oc2c(Cl)cncc2Cl)cc1 | 930 |
| CCCCCCc1nc(N)nc(N)c1-c1ccccc1 | 10 |
| CCc1nc(N)nc(N)c1-c1ccc2c(c1)OCO2 | 72 |
| CC1(C)N=C(N)N=C(N)N1c1ccc(Br)cc1 | 1.2 |
| CC1(C)N=C(N)N=C(N)N1c1ccccc1 | 140 |
| CC1(C)N=C(N)N=C(N)N1c1ccc(F)cc1 | 170 |
| NC1=NCN(c2ccc(Cl)cc2)C(N)=N1 | 0.84 |
| NC1=NCN(c2ccccc2)C(N)=N1 | 85 |
| NC1=NCN(c2ccc(F)cc2)C(N)=N1 | 88 |
| N=C(S)N/N=C/c1ccc(Oc2ncc(C(F)(F)F)cc2Cl)cc1 | 9000 |
| N=C(NO)c1ccc(CNC(=O)c2ccc(Cl)cc2)cc1 | 1500 |
| NNc1nc2ccccc2nc1NN | 8600 |
| N/C(=N\O)c1cccc(CS(=O)(=O)c2ccc(Cl)cc2)c1 | 800 |
| C=CCNC(=S)NNC(=O)c1cccn(Cc2cccc(Cl)c2)c1=O | 410 |
| COC(=O)c1sccc1-c1ccc(/C(C)=N/NC(N)=O)o1 | 20000 |
| N/N=C(\S)Nc1ccc(OCc2ccccc2)cc1 | 2000 |
| C/C(=N\N=C(/N)S)c1ccc(Oc2c(Cl)cncc2Cl)cc1 | 1400 |
| CC1(C)N=C(N)N=C(N)N1c1ccc(Cl)c(Cl)c1 [CHLORCYCLOGUANIL] | 1.1 |
| CC1(C)N=C(N)N=C(N)N1c1ccc(Cl)cc1 [CYCLOGUANIL] | 1.1 |
| CCc1nc(N)nc(N)c1-c1ccc(Cl)c(Cl)c1 [ETOPRINE] | 0.79 |
| NC(=S)N/N=C/c1ccccc1 [PHENYLTHIOSEMICARBAZONE] | 31000 |

Source: ChEMBL document CHEMBL1138679, “Three-dimensional quantitative structure-activity relationship analysis of a set of Plasmodium falciparum dihydrofolate reductase inhibitors using a pharmacophore generation approach” (J Med Chem, 2004)
